The subject of test [1] is Mycobacterium tuberculosis (Mtb). The experiment in a line: microbe, parasite or virus in culture. It is filed as cell-based, Mycobacterium tuberculosis H37Rv (Mtb-GFP). The following applies: 168 h.
For test [2], the system named is Staphylococcus aureus (methicillin resistant, MB5393, COL). The experiment in a line: microbe, parasite or virus in culture. It is filed as cell-based. As to conditions: MRSA, 22 h, read-out: MRSA COL MITC95 μM. The protocol:
Inhibition of Staphylococcus aureus (methicillin resistant, MB5393, COL) growth was assessed in cation adjusted Mueller Hinton II broth (CAMHB) in 384-well microtiter plates. Bacteria were dispensed into microtiter plates at approximately 5×10^5 actively growing cells in 49 μL volumes per well. Cells were exposed to 2-fold serial dilutions of compounds from 200 μM to 0.195 μM and growth compared to drug-free control. Compound dilutions were prepared in 100% dimethylsulfoxide and added to microtiter plates in 1 μL volumes per well. Full growth control wells contained dimethylsufoxide and bacteria. No growth control wells contained dimethysulfoxide and CAMHB but no bacteria. Growth inhibition was assessed after a 22-hour growth period by measuring optical density using a spectrophotometer. The lowest concentration of test compound required to inhibit 95% of the growth of the bacteria was defined as the MITC95. All studies were done in a BSL2 facility.

The mark [3] stands for this setting: pH 6.8, read-out: Mtb Cho MITC95_μM.
[4] abbreviates: pH 6.8, read-out: Mtb Glu MITC95_μM.

MIC data for eight compounds are collected here from US10947205B2, “Oxazolidinone compounds and methods of use thereof as antibacterial agents” (priority 2015, dated 2021).

Converted amounts (≈) assume the structure as drawn. Read-outs that look alike come from different tables or passages of the source.

`CN(C)S(=O)(=O)c1ccc(-c2ccc(N3C[C@H](CN)OC3=O)cc2F)cc1` [Example 14, 4′-[(5S)-5-(aminomethyl)-2-oxo-1,3-oxazolidin-3-yl]-2′-fluoro-N,N-dimethylbiphenyl-4-sulfonamide]: the figures for the MIC in test [1] (setting [3]), in test [1] (setting [4]) and in test [2] were 1.14 µM (≈ 0.449 µg/mL), 0.78 µM (≈ 0.307 µg/mL) and 200 µM (≈ 78.7 µg/mL), respectively.

On to `NC[C@H]1CN(c2ccc(-c3cnn(C(F)F)c3)c(F)c2)C(=O)O1` [Example 36, (5S)-5-(aminomethyl)-3-{4-[1-(difluoromethyl)-1H-pyrazol-4-yl]-3-fluorophenyl}-1,3-oxazolidin-2-one], for which the MIC in test [1] (setting [3]) amounted to 0.48 µM (≈ 0.157 µg/mL); in test [1] (setting [4]), 1.5 µM (≈ 0.489 µg/mL); in test [2] it was 200 µM (≈ 65.3 µg/mL).

For the compound `NC[C@H]1CN(c2ccc(-c3ccc(O)cc3)c(F)c2)C(=O)O1` [Example 11, (5S)-5-(aminomethyl)-3-(2-fluoro-4′-hydroxybiphenyl-4-yl)-1,3-oxazolidin-2-one], the MIC in test [1] (setting [3]) turned out to be 0.14 µM (≈ 0.0423 µg/mL); in test [1] (setting [4]), 25.1 µM (≈ 7.59 µg/mL); in test [2], 200 µM (≈ 60.5 µg/mL).

In the case of `NC[C@H]1CN(c2ccc(-c3ccsc3)c(F)c2)C(=O)O1` [Example 15, (5S)-5-(aminomethyl)-3-(3-fluoro-4-thiophen-3-ylphenyl)-1,3-oxazolidin-2-one], the MIC turned out to be 0.58 µM (≈ 0.17 µg/mL) in test [1] (setting [3]), 1.14 µM (≈ 0.333 µg/mL) in test [1] (setting [4]) and 200 µM (≈ 58.5 µg/mL) in test [2].

For `NC[C@H]1CN(c2ccc(-c3cncc4[nH]ccc34)c(F)c2)C(=O)O1` [Example 35, (5S)-5-(aminomethyl)-3-[3-fluoro-4-(1H-pyrrolo[2,3-c]pyridin-4-yl)phenyl]-1,3-oxazolidin-2-one], the MIC is 0.58 µM (≈ 0.189 µg/mL) in test [1] (setting [3]), 1.14 µM (≈ 0.372 µg/mL) in test [1] (setting [4]) and 200 µM (≈ 65.3 µg/mL) in test [2].

For the compound `NC[C@H]1CN(c2ccc(-c3ccoc3)c(F)c2)C(=O)O1` [Example 12, (5S)-5-(aminomethyl)-3-(3-fluoro-4-furan-3-ylphenyl)-1,3-oxazolidin-2-one], the MIC was 1.14 µM (≈ 0.315 µg/mL) in test [1] (setting [3]), 1.14 µM (≈ 0.315 µg/mL) in test [1] (setting [4]) and 200 µM (≈ 55.3 µg/mL) in test [2].

In the case of `CSc1ccc(-c2ccc(N3CC(Cn4ccnc4)OC3=O)cc2F)cc1` (stereo in doubt) [Example 45, (5R)-3-[2-fluoro-4′-(methylsulfanyl)biphenyl-4-yl]-5-(1H-imidazol-1-ylmethyl)-1,3-oxazolidin-2-one], the MIC in test [1] (setting [3]) was 0.39 µM (≈ 0.15 µg/mL); in test [1] (setting [4]), 1.14 µM (≈ 0.437 µg/mL); in test [2], 200 µM (≈ 76.7 µg/mL).

Turning to `CSc1ccc(-c2ccc(N3C[C@H](CNC(=O)NN(C)C)OC3=O)cc2F)cc1` [Example 60, (S)—N-((3-(2-fluoro-4′-(methylthio)-[1,1′-biphenyl]-4-yl)-2-oxooxazolidin-5-yl)methyl)-2,2-dimethylhydrazinecarboxamide], the results for the MIC in test [1] (setting [3]), in test [1] (setting [4]) and in test [2] were 1.14 µM (≈ 0.477 µg/mL), 2.3 µM (≈ 0.963 µg/mL) and 200 µM (≈ 83.7 µg/mL), respectively.
